Measurements taken from US7087762B2, “Long-lasting antimicrobial reaction product of allantoin and formaldehyde containing a low level of free formaldehyde” (ISP Investments Inc., priority 2002, dated 2006).

Key:
[1] = test system: PSA (Pseudomonas aeruginosa); experiment: Preservative challenge test, nonionic emulsion; assay type: cell-based
Description: (§1) A typical cosmetic emulsion was prepared for microbiological challenge testing and predetermined admixtures of a methylol compound and IPBC were added at various use levels. The emulsion thus prepared had the following composition:
(§2) The challenge tests were carried out using the following microorganisms: SA, ECOLI, PSA, PC, AN and CAN, in this manner. 50 g aliquots of the test emulsion containing various amounts of the preservative admixture were inoculated with approximately 10^7–10^8 of the challenge organisms. The test samples then were stirred to disperse the challenge inoculum. The samples were incubated and assayed at 48 hours, 7, 14, 21 and 28 days. The assays were performed on 1 g of the test sample by serially diluting 10^1 to 10^6 of the original concentration. The plating medium for bacteria was Letheen agar and for fungi it was low pH Mycophil agar with Tween 20. Each plated sample was incubated for 48 hours at 37° C. for bacteria, 5 days at 25° C. for mold, and 3 days at 25° C. for fungi. After incubation, readings of the number of colonies per milliliter (cfu/ml) were made. At 21 days the test product was reinoculated with half of the original inoculum.

[2] = test system: SA (Staphylococcus aureus); experiment: Preservative challenge test, nonionic emulsion; assay type: cell-based
Description: as §1, §2

[3] = test system: CAN (Candida albicans); experiment: Preservative challenge test, nonionic emulsion; assay type: cell-based
Description: as §1, §2

[4] = test system: EC (ECOLI, Escherichia coli); experiment: Preservative challenge test, nonionic emulsion; assay type: cell-based
Description: as §1, §2

[5] = test system: AN (Aspergillus niger); experiment: Preservative challenge test, nonionic emulsion; assay type: cell-based
Description: as §1, §2

[6] = test system: CAN (Candida albicans); experiment: Preservative challenge test, screening emulsion; assay type: cell-based
Description: as §1
(§3) To prepare the emulsion, Phases A and B were heated separately to 75°–80° C. Phase A then was added to Phase B with mixing. The mixture then was cooled to 55°–60° C. At this point the desired amount of the preservative admixture was added and the product was cooled to 50° C. while stirring. The citric acid solution then was added to adjust the pH and the mixture was stirred until a temperature of 30° C. was reached.
as §2

[7] = test system: EC (ECOLI, Escherichia coli); experiment: Preservative challenge test, screening emulsion; assay type: cell-based
Description: as §1, §3, §2

[8] = test system: AN (Aspergillus niger); experiment: Preservative challenge test, screening emulsion; assay type: cell-based
Description: as §1, §3, §2

[9] = test system: A. Niger ATCC 9642; experiment: Activity against yeast and mold, 0.3% test solutions; assay type: cell-based, Aspergillus niger; parameters: key: + Growth; − No Growth
Description: Activity against yeast and mold:

O=C1C(N(CO)C(=O)NCO)N(CO)C(=O)N1CO (stereo not drawn) [Germall II]
cfu/ml, 48 hrs ([1]; 2000 ppm): <10 cfu/ml
cfu/ml, 7 days ([1]; 2000 ppm): <10 cfu/ml
cfu/ml, 14 days ([1]; 2000 ppm): <10 cfu/ml
cfu/ml, 21 days ([1]; 2000 ppm): <10 cfu/ml
cfu/ml, 28 days ([1]; 2000 ppm): <10 cfu/ml
cfu/ml, 48 hrs ([1]; 4000 ppm): <10 cfu/ml
cfu/ml, 7 days ([1]; 4000 ppm): <10 cfu/ml
cfu/ml, 14 days ([1]; 4000 ppm): <10 cfu/ml
cfu/ml, 21 days ([1]; 4000 ppm): <10 cfu/ml
cfu/ml, 28 days ([1]; 4000 ppm): <10 cfu/ml
cfu/ml, 48 hrs ([2]; 2000 ppm): <10 cfu/ml
cfu/ml, 7 days ([2]; 2000 ppm): <10 cfu/ml
cfu/ml, 14 days ([2]; 2000 ppm): <10 cfu/ml
cfu/ml, 21 days ([2]; 2000 ppm): <10 cfu/ml
cfu/ml, 28 days ([2]; 2000 ppm): <10 cfu/ml
cfu/ml, 48 hrs ([2]; 4000 ppm): <10 cfu/ml
cfu/ml, 7 days ([2]; 4000 ppm): <10 cfu/ml
cfu/ml, 14 days ([2]; 4000 ppm): <10 cfu/ml
cfu/ml, 21 days ([2]; 4000 ppm): <10 cfu/ml
cfu/ml, 28 days ([2]; 4000 ppm): <10 cfu/ml
cfu/ml, 48 hrs ([3]; 2000 ppm): 320,000 cfu/ml
cfu/ml, 7 days ([3]; 2000 ppm): 720,000 cfu/ml
cfu/ml, 14 days ([3]; 2000 ppm): 650,000 cfu/ml
cfu/ml, 21 days ([3]; 2000 ppm): 730,000 cfu/ml
cfu/ml, 28 days ([3]; 2000 ppm): >1E6 cfu/ml
cfu/ml, 48 hrs ([3]; 4000 ppm): 50 cfu/ml
cfu/ml, 7 days ([3]; 4000 ppm): 10,000 cfu/ml
cfu/ml, 14 days ([3]; 4000 ppm): 620,000 cfu/ml
cfu/ml, 21 days ([3]; 4000 ppm): 460,000 cfu/ml
cfu/ml, 28 days ([3]; 4000 ppm): >1E6 cfu/ml
cfu/ml, 48 hrs ([4]; 2000 ppm): <10 cfu/ml
cfu/ml, 7 days ([4]; 2000 ppm): <10 cfu/ml
cfu/ml, 14 days ([4]; 2000 ppm): <10 cfu/ml
cfu/ml, 21 days ([4]; 2000 ppm): <10 cfu/ml
cfu/ml, 28 days ([4]; 2000 ppm): <10 cfu/ml
cfu/ml, 48 hrs ([4]; 4000 ppm): <10 cfu/ml
cfu/ml, 7 days ([4]; 4000 ppm): <10 cfu/ml
cfu/ml, 14 days ([4]; 4000 ppm): <10 cfu/ml
cfu/ml, 21 days ([4]; 4000 ppm): <10 cfu/ml
cfu/ml, 28 days ([4]; 4000 ppm): <10 cfu/ml
cfu/ml, 48 hrs ([5]; 2000 ppm): <10 cfu/ml
cfu/ml, 7 days ([5]; 2000 ppm): <10 cfu/ml
cfu/ml, 14 days ([5]; 2000 ppm): <10 cfu/ml
cfu/ml, 21 days ([5]; 2000 ppm): <10 cfu/ml
cfu/ml, 28 days ([5]; 2000 ppm): <10 cfu/ml
cfu/ml, 48 hrs ([5]; 4000 ppm): <10 cfu/ml
cfu/ml, 7 days ([5]; 4000 ppm): <10 cfu/ml
cfu/ml, 14 days ([5]; 4000 ppm): <10 cfu/ml
cfu/ml, 21 days ([5]; 4000 ppm): <10 cfu/ml
cfu/ml, 28 days ([5]; 4000 ppm): <10 cfu/ml
cfu/ml, 48 hrs ([6]; 250 ppm): 290,000 cfu/ml
cfu/ml, 7 days ([6]; 250 ppm): 170,000 cfu/ml
cfu/ml, 14 days ([6]; 250 ppm): 71,000 cfu/ml
cfu/ml, 21 days ([6]; 250 ppm): 46,000 cfu/ml
cfu/ml, 28 days ([6]; 250 ppm): 680,000 cfu/ml
cfu/ml, 48 hrs ([6]; 500 ppm): 170,000 cfu/ml
cfu/ml, 7 days ([6]; 500 ppm): 100,000 cfu/ml
cfu/ml, 14 days ([6]; 500 ppm): 90,000 cfu/ml
cfu/ml, 21 days ([6]; 500 ppm): 320,000 cfu/ml
cfu/ml, 28 days ([6]; 500 ppm): 930,000 cfu/ml
cfu/ml, 48 hrs ([6]; 1000 ppm): 160,000 cfu/ml
cfu/ml, 7 days ([6]; 1000 ppm): 78,000 cfu/ml
cfu/ml, 14 days ([6]; 1000 ppm): 63,000 cfu/ml
cfu/ml, 21 days ([6]; 1000 ppm): 260,000 cfu/ml
cfu/ml, 28 days ([6]; 1000 ppm): 210,000 cfu/ml
cfu/ml, 48 hrs ([6]; 2000 ppm): 150 cfu/ml
cfu/ml, 7 days ([6]; 2000 ppm): 9,600 cfu/ml
cfu/ml, 14 days ([6]; 2000 ppm): 48,900 cfu/ml
cfu/ml, 21 days ([6]; 2000 ppm): 490,000 cfu/ml
cfu/ml, 28 days ([6]; 2000 ppm): 210,000 cfu/ml
cfu/ml, 48 hrs ([7]; 250 ppm): 5500 cfu/ml
cfu/ml, 7 days ([7]; 250 ppm): <10 cfu/ml
cfu/ml, 14 days ([7]; 250 ppm): <10 cfu/ml
cfu/ml, 21 days ([7]; 250 ppm): <10 cfu/ml
cfu/ml, 28 days ([7]; 250 ppm): <10 cfu/ml
cfu/ml, 48 hrs ([7]; 500 ppm): 610 cfu/ml
cfu/ml, 7 days ([7]; 500 ppm): <10 cfu/ml
cfu/ml, 14 days ([7]; 500 ppm): <10 cfu/ml
cfu/ml, 21 days ([7]; 500 ppm): <10 cfu/ml
cfu/ml, 28 days ([7]; 500 ppm): <10 cfu/ml
cfu/ml, 48 hrs ([7]; 1000 ppm): <10 cfu/ml
cfu/ml, 7 days ([7]; 1000 ppm): <10 cfu/ml
cfu/ml, 14 days ([7]; 1000 ppm): <10 cfu/ml
cfu/ml, 21 days ([7]; 1000 ppm): <10 cfu/ml
cfu/ml, 28 days ([7]; 1000 ppm): <10 cfu/ml
cfu/ml, 48 hrs ([7]; 2000 ppm): <10 cfu/ml
cfu/ml, 7 days ([7]; 2000 ppm): <10 cfu/ml
cfu/ml, 14 days ([7]; 2000 ppm): <10 cfu/ml
cfu/ml, 21 days ([7]; 2000 ppm): <10 cfu/ml
cfu/ml, 28 days ([7]; 2000 ppm): <10 cfu/ml
cfu/ml, 48 hrs ([8]; 250 ppm): 50,000 cfu/ml
cfu/ml, 7 days ([8]; 250 ppm): <10 cfu/ml
cfu/ml, 14 days ([8]; 250 ppm): <10 cfu/ml
cfu/ml, 21 days ([8]; 250 ppm): <10 cfu/ml
cfu/ml, 28 days ([8]; 250 ppm): 100 cfu/ml
cfu/ml, 48 hrs ([8]; 500 ppm): 40 cfu/ml
cfu/ml, 7 days ([8]; 500 ppm): <10 cfu/ml
cfu/ml, 14 days ([8]; 500 ppm): <10 cfu/ml
cfu/ml, 21 days ([8]; 500 ppm): <10 cfu/ml
cfu/ml, 28 days ([8]; 500 ppm): <10 cfu/ml
cfu/ml, 48 hrs ([8]; 1000 ppm): <10 cfu/ml
cfu/ml, 7 days ([8]; 1000 ppm): <10 cfu/ml
cfu/ml, 14 days ([8]; 1000 ppm): <10 cfu/ml
cfu/ml, 21 days ([8]; 1000 ppm): <10 cfu/ml
cfu/ml, 28 days ([8]; 1000 ppm): <10 cfu/ml
cfu/ml, 48 hrs ([8]; 2000 ppm): <10 cfu/ml
cfu/ml, 7 days ([8]; 2000 ppm): <10 cfu/ml
cfu/ml, 14 days ([8]; 2000 ppm): <10 cfu/ml
cfu/ml, 21 days ([8]; 2000 ppm): <10 cfu/ml
cfu/ml, 28 days ([8]; 2000 ppm): <10 cfu/ml
Growth, A. Niger ATCC 9642(for 3 Days) [9]: −
